According to US20260325533A1, “CDK INHIBITOR COMPOUNDS” (ALEKSIA THERAPEUTICS, INC., priority 2023, published 2026):
Like-named read-outs stand apart in the source and are kept apart here.

Assays:
Format in all cases: biochemical
[1] = target: CDK2/CCNE1 (Homo sapiens, UniProt P24941); assay: CDK2 homogeneous time-resolved fluorescence (HTRF) kinase assay; conditions: CDK2/CCNE
Outline: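 TR-FRET read-out (665 nm, or 665/615 ratio) of Eu-antibody detection of phospho-4E-BP1 (Thr37/46) ULight peptide. Enzyme 3 nM, ATP 1 mM, peptide 50 nM, 1% DMSO; 60 min reaction at 23 °C after 20 min compound preincubation. IC50 from 11-point half-log titrations, top typically 10 μM.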

[2] = target: CDK1/CCNB1 (Homo sapiens, UniProt P06493); assay: CDK1 homogeneous time-resolved fluorescence (HTRF) kinase assay; conditions: CDK1/CCNB
Outline: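 Kinase activity is measured as Lance signal (665 nm, or 665/615 nm ratio) from europium-labelled anti-phospho-Thr37/46 antibody binding ULight-4E-BP1 peptide. Reactions contain 0.5 nM enzyme, 1 mM ATP, 1% DMSO and run 60 min at 23 °C before EDTA quench.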

[3] = target: CDK4/CCND3 (Homo sapiens, UniProt P11802); assay: CDK4 homogeneous time-resolved fluorescence (HTRF) kinase assay; conditions: CDK4/CCND
Outline: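 HTRF kinase assay, CDK4/CCND3 1.5 nM, ATP 1 mM, ULight-4E-BP1 peptide 50 nM, 23 °C, 60 min reaction after 20 min preincubation. Eu-anti-pThr37/46 antibody detection. 11-pt half-log curves from 10 μM → IC50.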

[4] = target: CDK6/CCND1 (Homo sapiens, UniProt Q00534); assay: CDK6 homogeneous time-resolved fluorescence (HTRF) kinase assay; conditions: CDK6/CCND
Outline: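 Recombinant CDK6/CCND1 (1 nM final) was preincubated with compound for 20 min at 23 °C in HEPES buffer with MgCl2, EGTA, DTT and Tween 20. Kinase reaction then ran 60 min at 23 °C with 1 mM ATP and 50 nM ULight-4E-BP1 (Thr37/46) peptide, and was stopped with EDTA.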

[5] = >250 nM, read-out: CDK1/CCNB IC50 >250 nM
[6] = >250 nM, read-out: CDK4/CCND IC50, >250 nM
[7] = >250 nM, 1 mM ATP, read-out: CDK6/CCND IC50, >250 nM
[8] = <25 nM, read-out: CDK2/CCNE IC50, <25 nM
[9] = >250 nM marked x, read-out: CDK2/CCNE IC50 >250 nM
[10] = >250 nM marked x, read-out: CDK1/CCNB IC50 >250 nM
[11] = >250 nM marked x, read-out: CDK4/CCND IC50 >250 nM
[12] = >250 nM marked x, read-out: CDK6/CCND IC50 >250 nM
[13] = <25 nM, read-out: CDK2/CCNE IC50 <25 nM
[14] = 25-250 nM marked x, read-out: CDK4/CCND IC50 25-250 nM
[15] = 25-250 nM marked x, read-out: CDK6/CCND IC50 25-250 nM
[16] = x = IC50 <25 nM, read-out: CDK2/CCNE IC50 (<25 nM)
[17] = x = IC50 >250 nM, read-out: CDK1/CCNB IC50 (>250 nM column)
[18] = x = IC50 >250 nM, read-out: CDK4/CCND IC50 (>250 nM column)
[19] = x = IC50 >250 nM, read-out: CDK6/CCND IC50 (>250 nM column)
[20] = x = IC50 25-250 nM, read-out: CDK2/CCNE IC50 (25-250 nM)
[21] = <25 nM, read-out: CDK6/CCND IC50 <25 nM
[22] = 25-250 nM marked x, read-out: CDK1/CCNB IC50 25-250 nM

Chain of CDK4/CCND3 (P11802 whole entry): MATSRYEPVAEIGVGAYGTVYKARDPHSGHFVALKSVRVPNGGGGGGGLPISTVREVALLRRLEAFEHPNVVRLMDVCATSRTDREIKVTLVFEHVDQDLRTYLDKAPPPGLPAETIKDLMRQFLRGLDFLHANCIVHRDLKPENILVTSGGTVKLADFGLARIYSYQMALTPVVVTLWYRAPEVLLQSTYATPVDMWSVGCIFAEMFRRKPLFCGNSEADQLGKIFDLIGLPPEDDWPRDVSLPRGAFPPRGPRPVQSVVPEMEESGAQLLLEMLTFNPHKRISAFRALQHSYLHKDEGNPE
Chain of CDK4/CCND3 (P30281 whole entry partner): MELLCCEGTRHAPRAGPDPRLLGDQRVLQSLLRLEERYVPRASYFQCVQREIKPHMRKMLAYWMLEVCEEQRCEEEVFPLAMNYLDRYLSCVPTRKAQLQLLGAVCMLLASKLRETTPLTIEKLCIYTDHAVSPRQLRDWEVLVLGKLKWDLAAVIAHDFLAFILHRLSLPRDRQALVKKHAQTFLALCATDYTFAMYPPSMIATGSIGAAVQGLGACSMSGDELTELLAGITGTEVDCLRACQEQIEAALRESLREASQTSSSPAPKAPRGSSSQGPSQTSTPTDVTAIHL
Chain of CDK6/CCND1 (Q00534 whole entry): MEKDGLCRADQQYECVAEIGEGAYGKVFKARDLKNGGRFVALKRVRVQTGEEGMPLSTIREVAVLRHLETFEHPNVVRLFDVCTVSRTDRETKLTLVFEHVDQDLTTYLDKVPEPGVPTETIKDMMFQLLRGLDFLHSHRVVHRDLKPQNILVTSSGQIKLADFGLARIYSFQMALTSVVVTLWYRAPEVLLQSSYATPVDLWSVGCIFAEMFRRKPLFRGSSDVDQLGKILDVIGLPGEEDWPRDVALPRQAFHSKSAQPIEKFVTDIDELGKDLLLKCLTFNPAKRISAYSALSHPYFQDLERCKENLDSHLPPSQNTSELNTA
Chain of CDK6/CCND1 (P24385 whole entry partner): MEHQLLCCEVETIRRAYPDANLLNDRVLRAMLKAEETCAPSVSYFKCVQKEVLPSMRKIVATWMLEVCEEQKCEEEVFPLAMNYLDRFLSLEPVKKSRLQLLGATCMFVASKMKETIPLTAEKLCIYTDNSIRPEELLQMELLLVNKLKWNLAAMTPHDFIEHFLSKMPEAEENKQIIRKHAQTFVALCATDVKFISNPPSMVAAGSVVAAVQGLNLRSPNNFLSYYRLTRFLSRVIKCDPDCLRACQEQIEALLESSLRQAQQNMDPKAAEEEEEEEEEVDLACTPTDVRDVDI
Chain of CDK1/CCNB1 (P06493 whole entry): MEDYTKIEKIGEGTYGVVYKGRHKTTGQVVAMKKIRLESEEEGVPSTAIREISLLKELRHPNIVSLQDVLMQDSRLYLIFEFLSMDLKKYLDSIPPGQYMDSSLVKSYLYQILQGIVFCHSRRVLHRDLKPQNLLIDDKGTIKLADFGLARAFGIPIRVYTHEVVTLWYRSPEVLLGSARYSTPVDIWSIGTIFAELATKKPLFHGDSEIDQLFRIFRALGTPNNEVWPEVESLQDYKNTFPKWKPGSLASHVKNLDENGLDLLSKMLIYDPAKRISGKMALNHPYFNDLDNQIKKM
Chain of CDK1/CCNB1 (P14635 whole entry partner): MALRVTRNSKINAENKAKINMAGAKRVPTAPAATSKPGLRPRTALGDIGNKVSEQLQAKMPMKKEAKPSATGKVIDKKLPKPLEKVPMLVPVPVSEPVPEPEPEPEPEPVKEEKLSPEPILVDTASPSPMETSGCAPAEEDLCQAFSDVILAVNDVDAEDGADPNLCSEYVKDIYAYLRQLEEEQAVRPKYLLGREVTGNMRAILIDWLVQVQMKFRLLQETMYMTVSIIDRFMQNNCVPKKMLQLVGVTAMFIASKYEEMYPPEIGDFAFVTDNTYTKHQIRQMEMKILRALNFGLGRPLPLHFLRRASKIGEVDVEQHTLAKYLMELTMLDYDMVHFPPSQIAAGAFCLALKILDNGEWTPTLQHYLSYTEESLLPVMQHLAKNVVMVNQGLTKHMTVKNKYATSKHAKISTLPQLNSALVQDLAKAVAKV

SMILES: CN1CCN(S(=O)(=O)c2ccc(Nc3cc4c(C#Cc5ccc(C#N)cc5)nccc4cn3)cc2)CC1 [Ex 933, 4-((7-((4-((4-methylpiperazin-1-yl)sulfonyl)phenyl)amino)-2,6-naphthyridin-1-yl)ethynyl)benzonitrile]
- IC50 ([1]; >250 nM, read-out: CDK2/CCNE IC50, >250 nM): > 250 nM
- IC50 [2, 5]: > 250 nM
- IC50 [3, 6]: > 250 nM
- IC50 [4, 7]: > 250 nM

SMILES: C[C@H]1CN(c2cc(Nc3cc4c(C#Cc5ccc(=O)[nH]n5)nccc4cn3)cnc2O)CCN1C [Ex 865, (S)-6-((7-((5-(3,4-dimethylpiperazin-1-yl)-6-hydroxypyridin-3-yl)amino)-2,6-naphthyridin-1-yl)ethynyl)pyridazin-3(2H)-one]
- IC50 ([1]; 25-250 nM, read-out: CDK2/CCNE IC50, 25-250 nM): 25 to 250 nM
- IC50 [2, 5]: > 250 nM
- IC50 [3, 6]: > 250 nM
- IC50 [4, 7]: > 250 nM

SMILES: Cc1c(-c2nccc3cnc(Nc4ccc(NS(=O)(=O)c5cccc(N6CCOCC6)c5)cc4)cc23)ccc2c1cnn2CC(C)(C)O [Ex 753, N-(4-((5-(1-(2-hydroxy-2-methylpropyl)-4-methyl-1H-indazol-5-yl)-2,6-naphthyridin-3-yl)amino)phenyl)-3-morpholinobenzenesulfonamide]
- IC50 [1, 8]: < 25 nM
- IC50 [2, 5]: > 250 nM
- IC50 [3, 6]: > 250 nM
- IC50 [4, 7]: > 250 nM

SMILES: CS(=O)(=O)c1ccc(Nc2cc3c(C4CCN(C(=O)Nc5cccnc5)CC4)nccc3cn2)cc1 [Ex 198, 4-(7-((4-(methylsulfonyl)phenyl)amino)-2,6-naphthyridin-1-yl)-N-(pyridin-3-yl)piperidine-1-carboxamide]
- IC50 [1, 9]: > 250 nM
- IC50 [2, 10]: > 250 nM
- IC50 [3, 11]: > 250 nM
- IC50 [4, 12]: > 250 nM

SMILES: Cc1c(-c2nccc3cnc(Nc4ccc(S(C)(=O)=O)cc4)cc23)ccc2nn(CC(N)=O)cc12 [Ex 250, 2-(4-methyl-5-(7-((4-(methylsulfonyl)phenyl)amino)-2,6-naphthyridin-1-yl)-2H-indazol-2-yl)acetamide]
- IC50 [1, 13]: < 25 nM
- IC50 [2, 10]: > 250 nM
- IC50 [3, 14]: 25 to 250 nM
- IC50 [4, 15]: 25 to 250 nM

SMILES: Cc1cc(S(C)(=N)=O)ccc1Nc1cc2c(C#Cc3ccc4c(c3)NC(=O)C43CCC3)nccc2cn1 (single isomer, unassigned) [Ex 332, 6'-((7-((2-methyl-4-(S-methylsulfonimidoyl)phenyl)amino)-2,6-naphthyridin-1-yl)ethynyl)spiro[cyclobutane-1,3'-indolin]-2'-one]
- IC50 [1, 13]: < 25 nM
- IC50 [2, 10]: > 250 nM
- IC50 [3, 11]: > 250 nM
- IC50 [4, 12]: > 250 nM

SMILES: COc1cc(S(C)(=O)=O)ccc1Nc1cc2c(C#Cc3ccc4c(c3)NC(=O)C43CCC3)nccc2cn1 [Ex 361, 6'-((7-((2-methoxy-4-(methylsulfonyl)phenyl)amino)-2,6-naphthyridin-1-yl)ethynyl)spiro[cyclobutane-1,3'-indolin]-2'-one]
- IC50 [1, 16]: < 25 nM
- IC50 [2, 17]: > 250 nM
- IC50 [3, 18]: > 250 nM
- IC50 [4, 19]: > 250 nM

SMILES: Cc1c(C#N)ccc(C#Cc2nccc3cnc(Nc4ccc(S(C)(=O)=O)cc4)cc23)c1C [Ex 643, 2,3-dimethyl-4-((7-((4-(methylsulfonyl)phenyl)amino)-2,6-naphthyridin-1-yl)ethynyl)benzonitrile]
- IC50 [1, 20]: 25 to 250 nM
- IC50 [2, 17]: > 250 nM
- IC50 [3, 18]: > 250 nM
- IC50 [4, 19]: > 250 nM

SMILES: CS(=O)(=O)c1ccc(Nc2cc3c(-c4ccc5nn(CCO)cc5c4)nccc3cn2)cc1 [Ex 639, 2-(5-(7-((4-(methylsulfonyl)phenyl)amino)-2,6-naphthyridin-1-yl)-2H-indazol-2-yl)ethan-1-ol]
- IC50 [1, 20]: 25 to 250 nM
- IC50 [2, 17]: > 250 nM
- IC50 [3, 18]: > 250 nM
- IC50 [4, 19]: > 250 nM

SMILES: CS(=O)(=O)N1CCC(Nc2cc3c(N4CCCC4)nccc3cn2)CC1 [Example 2, N-(1-(methylsulfonyl)piperidin-4-yl)-5-(pyrrolidin-1-yl)-2,6-naphthyridin-3-amine]
- IC50 ([1]; 25-250 nM marked x, read-out: CDK2/CCNE IC50 25-250 nM): 25 to 250 nM
- IC50 [2, 10]: > 250 nM
- IC50 [3, 14]: 25 to 250 nM
- IC50 [4, 21]: < 25 nM

SMILES: Cc1c(-c2nccc3cnc(NC4CCN(C(=O)c5ccccc5)C4)cc23)ccc2c1cnn2CC(C)(C)O (racemic) [Ex 885, (3-((5-(1-(2-hydroxy-2-methylpropyl)-4-methyl-1H-indazol-5-yl)-2,6-naphthyridin-3-yl)amino)pyrrolidin-1-yl)(phenyl)methanone]
- IC50 [1, 8]: < 25 nM
- IC50 [2, 5]: > 250 nM
- IC50 [3, 6]: > 250 nM
- IC50 [4, 7]: > 250 nM

SMILES: CS(=O)(=O)c1ccc(Nc2cc3c(C#CC4CCN(CC(=O)O)CC4)nccc3cn2)cc1 [Ex 609, 2-(4-((7-((4-(methylsulfonyl)phenyl)amino)-2,6-naphthyridin-1-yl)ethynyl)piperidin-1-yl)acetic acid]
- IC50 [1, 16]: < 25 nM
- IC50 [2, 17]: > 250 nM
- IC50 [3, 18]: > 250 nM
- IC50 [4, 19]: > 250 nM

SMILES: CS(=O)(=O)N1CCC(Nc2cc3c(-c4ccc5[nH]ccc5c4)nccc3cn2)CC1 [Ex 63, 5-(1H-indol-5-yl)-N-(1-(methylsulfonyl)piperidin-4-yl)-2,6-naphthyridin-3-amine]
- IC50 [1, 13]: < 25 nM
- IC50 [2, 22]: 25 to 250 nM
- IC50 ([3]; <25 nM, read-out: CDK4/CCND IC50 <25 nM): < 25 nM
- IC50 [4, 21]: < 25 nM

SMILES: CC(C)S(=O)(=O)N1CCC(c2nccc3cnc(Nc4ccc(S(C)(=O)=O)cc4)cc23)C1 (racemic) [Ex 236, 5-(1-(isopropylsulfonyl)pyrrolidin-3-yl)-N-(4-(methylsulfonyl)phenyl)-2,6-naphthyridin-3-amine]
- IC50 [1, 9]: > 250 nM
- IC50 [2, 10]: > 250 nM
- IC50 [3, 11]: > 250 nM
- IC50 [4, 12]: > 250 nM

SMILES: CCC(=O)N1CCC(c2nccc3cnc(Nc4ccc(S(C)(=O)=O)cc4)cc23)C1 (racemic) [Ex 234, 1-(3-(7-((4-(methylsulfonyl)phenyl)amino)-2,6-naphthyridin-1-yl)pyrrolidin-1-yl)propan-1-one]
- IC50 [1, 9]: > 250 nM
- IC50 [2, 10]: > 250 nM
- IC50 [3, 11]: > 250 nM
- IC50 [4, 12]: > 250 nM

SMILES: Cc1c(-c2nccc3cnc(Nc4ccc(NS(=O)(=O)c5ccsc5)cc4)cc23)ccc2c1cnn2CC(C)(C)O [Ex 831, N-(4-((5-(1-(2-hydroxy-2-methylpropyl)-4-methyl-1H-indazol-5-yl)-2,6-naphthyridin-3-yl)amino)phenyl)thiophene-3-sulfonamide]
- IC50 [1, 8]: < 25 nM
- IC50 [2, 5]: > 250 nM
- IC50 [3, 6]: > 250 nM
- IC50 [4, 7]: > 250 nM

SMILES: N#CC1CCN(c2nccc3cnc(Nc4ccc(S(N)(=O)=O)cc4)cc23)CC1 [Ex 187, 4-((5-(4-cyanopiperidin-1-yl)-2,6-naphthyridin-3-yl)amino)benzenesulfonamide]
- IC50 [1, 13]: < 25 nM
- IC50 [2, 22]: 25 to 250 nM
- IC50 [3, 14]: 25 to 250 nM
- IC50 [4, 15]: 25 to 250 nM

SMILES: Cc1c(-c2nccc3cnc(Nc4ccc(S(=O)(=O)NC5CCN(C)CC5)cc4)cc23)ccc2c1cnn2CC(C)(C)O [Ex 763, 4-((5-(1-(2-hydroxy-2-methylpropyl)-4-methyl-1H-indazol-5-yl)-2,6-naphthyridin-3-yl)amino)-N-(1-methylpiperidin-4-yl)benzenesulfonamide]
- IC50 [1, 8]: < 25 nM
- IC50 ([2]; 25-250 nM, read-out: CDK1/CCNB IC50, 25-250 nM): 25 to 250 nM
- IC50 ([3]; 25-250 nM, read-out: CDK4/CCND IC50, 25-250 nM): 25 to 250 nM
- IC50 ([4]; 25-250 nM, 1 mM ATP, read-out: CDK6/CCND IC50, 25-250 nM): 25 to 250 nM
